“Also recorded” adds a separate entry of the source.

The values that follow come from US10961276B2, “Universal antivenom” (CAMRIS International, Inc., priority 2017, dated 2021).

The test system of this assay is PLA2 of five major snake venoms in the U.S. (all major North American crotalid venoms). In words: Cross-species anti-PLA2 activity of phage clone. In kind it is biochemical. The following applies: five major snake venoms in the U.S. (FIG. 4). How it is done:
Analysis of PLAz activity was conducted using the EnzChek® PLAz Assay Kit (Thermo Fisher Scientific, Waltham, Mass.). Individual phage clones were standardized to […] and diluted in log steps. Diluted phages were incubated with 4.88 μg/ml Western Cottonmouth venom for 30 minutes at RT. Fluorescence emission spectra (excitation at 485 nm, emission at 528 nm) was measured for 20 minutes at 1.0 minute intervals to monitor the reaction. PLA2 activity was determined by comparing the phage inhibited venom to uninhibited venom controls.
Originally consensus peptide for panning target was designed with ˜95% homology of all major North American crotalid PLA2. This cross-species reactivity of the selected phage clone is the best evidence for the potential development of a universal antivenom using phage display technique.

In the case of KLIHGNGVMDEG [Ph.D.-12-7], the “cross-species anti-PLA2 activities” value is “cross-species anti-PLA2 activity; also recorded: showed anti-PLA2 activities across all major North American crotalid venoms”.
